Experimental data as given in US20050226919A1, “Device for transdermal administration for the treatment of urinary tract disorders” (priority 2001, published 2005).

What was measured:
α1a-receptor = target: T1, α1a-receptor (Homo sapiens, UniProt P35348); conditions: Murata et al., Br. J. Pharmacol. (1999) 127, 19-26; cited from earlier work
T1 sequence (P35348 1-466): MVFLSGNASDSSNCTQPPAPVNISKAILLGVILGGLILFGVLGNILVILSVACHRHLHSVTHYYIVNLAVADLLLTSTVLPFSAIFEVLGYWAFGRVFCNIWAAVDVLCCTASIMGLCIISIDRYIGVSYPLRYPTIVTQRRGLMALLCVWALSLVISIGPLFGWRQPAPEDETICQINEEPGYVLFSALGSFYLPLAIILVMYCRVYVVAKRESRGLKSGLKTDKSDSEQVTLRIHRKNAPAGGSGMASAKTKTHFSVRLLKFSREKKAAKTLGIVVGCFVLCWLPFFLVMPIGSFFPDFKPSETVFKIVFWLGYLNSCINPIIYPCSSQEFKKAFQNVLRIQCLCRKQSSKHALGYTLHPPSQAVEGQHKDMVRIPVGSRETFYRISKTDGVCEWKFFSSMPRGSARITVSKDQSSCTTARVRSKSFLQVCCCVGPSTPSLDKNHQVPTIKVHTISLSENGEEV

[1] = Skin permeation across hairless mouse skin (horizontal diffusion cell); format: in vitro ADME
Protocol: (§1) The skin permeation of KMD 3213 was also evaluated on hairless mouse skin and human skin. Human skin penetration assays were performed as described by Tanojo et al. in Journal of Controlled Release 45 (1997), 41-47. The concentration of KMD 3213 was measured by HPLC with a Symetry Shield RP-8, 3.9*150 mm 5 μm column; T=35° C.; eluent: water/acetonitrile/trifluoracetic acid 800/200/1 (v/v/v); dectetion UV at 225 nm; flux rate 1.5 ml/min; injection volume: 100 μl at 23° C.
The flux measurements on hairless mouse skin were conducted using a TTS area of 2.55 cm^2 fixed on mouse abdominal and back skin in a horizontal diffusion cell. Immediately thereafter the acceptor chamber of the cell was filled with phosphate buffer solution (0.066 molar) previously adjusted to 32±0.5° C. and pH 6.2, in an air-bubble free state, and the release medium thermostatted to 32±0.5° C. At the time of sampling (after 3, 6, 24 and 48 hours) the release medium is exchanged with fresh medium thermostatted at 32±0.5° C. KMD 3213 was measured with HPLC as explained above.

[2] = Skin permeation across human skin (in vitro penetration assay); format: in vitro ADME
Protocol: as §1

steady state skin permeation rate on hairless mouse skin ([1]; hairless mouse skin, TTS area 2.55 cm^2, phosphate buffer pH 6.2, 32°C): approximately 2.7 mg/20 cm^2 per day
steady state flux rate through mouse skin ([1]; mouse skin, from the devices of the invention): 2.7 mg/day
steady state flux rate on human skin [2]: 2.9 mg/20 cm^2 per day
Compound: C[C@H](Cc1cc2c(c(C(N)=O)c1)N(CCCO)CC2)NCCOc1ccccc1OCC(F)(F)F [KMD 3213, (-)-(R)-1-(3-hydroxypropyl)-5-[2-[[2-[2-(2,2,2-trifluoroethoxy)phenoxy]ethyl]amino]propyl]indoline-7-carboxamide]
α-adrenoceptor subtype specificity (α1a-receptor): binding specifically to the α1a-receptor
